In ChEMBL document CHEMBL3045196, “Relationships between Insecticidal Activity of 6-Alkylthio-2-pyridyl Methanesulfonates and Acetylcholinesterase Inhibition of their Sulfone Derivatives against Nephotettix cincticeps” (J Pestic Sci, 1990):

Test system: Nephotettix cincticeps
Experiment: Insecticidal activity against resistant Nephotettix cincticeps Izumi (green rice leafhopper) assessed as mortality by foliar-spray
Type: functional

SMILES | log(1/LD50)
CCCSc1cccc(OS(C)(=O)=O)n1 | 7.65
CCCC(C)Sc1cccc(OS(C)(=O)=O)n1 (stereo not drawn) | 7.41
CS(=O)(=O)Oc1cccc(Sc2ccccc2)n1 | 7.3
CS(=O)(=O)Oc1cccc(SC2CCCCC2)n1 | 7.28
CCCCCSc1cccc(OS(C)(=O)=O)n1 | 6.74
CS(=O)(=O)Oc1cccc(SCc2ccccc2)n1 | 6.97
CSCCSc1cccc(OS(C)(=O)=O)n1 | 6.54
CCSc1cccc(OS(C)(=O)=O)n1 | 7.33
CC(C)(C)Sc1cccc(OS(C)(=O)=O)n1 | 6.87
CSc1cccc(OS(C)(=O)=O)n1 | 5.74
CC(C)CCSc1cccc(OS(C)(=O)=O)n1 | 6.44
CC(C)CSc1cccc(OS(C)(=O)=O)n1 [6-(ISOBUTYLTHIO)PYRIDIN-2-YL METHANESULFONATE] | 7.95
CS(=O)(=O)Oc1cccc(SC2CCCC2)n1 | 7.82
CS(=O)(=O)Oc1cccc(SCC2CC2)n1 | 7.8
CCC(C)Sc1cccc(OS(C)(=O)=O)n1 (stereo not drawn) | 7.68
CCCCSc1cccc(OS(C)(=O)=O)n1 | 7.41
CC(C)Sc1cccc(OS(C)(=O)=O)n1 | 7.39
CC(C)(C)CSc1cccc(OS(C)(=O)=O)n1 | 6.69

Molecular target: Ace-orthologous acetylcholinesterase (Nephotettix cincticeps) (UniProt Q9NJH6)
Sequence (Q9NJH6 20-677 limits assumed): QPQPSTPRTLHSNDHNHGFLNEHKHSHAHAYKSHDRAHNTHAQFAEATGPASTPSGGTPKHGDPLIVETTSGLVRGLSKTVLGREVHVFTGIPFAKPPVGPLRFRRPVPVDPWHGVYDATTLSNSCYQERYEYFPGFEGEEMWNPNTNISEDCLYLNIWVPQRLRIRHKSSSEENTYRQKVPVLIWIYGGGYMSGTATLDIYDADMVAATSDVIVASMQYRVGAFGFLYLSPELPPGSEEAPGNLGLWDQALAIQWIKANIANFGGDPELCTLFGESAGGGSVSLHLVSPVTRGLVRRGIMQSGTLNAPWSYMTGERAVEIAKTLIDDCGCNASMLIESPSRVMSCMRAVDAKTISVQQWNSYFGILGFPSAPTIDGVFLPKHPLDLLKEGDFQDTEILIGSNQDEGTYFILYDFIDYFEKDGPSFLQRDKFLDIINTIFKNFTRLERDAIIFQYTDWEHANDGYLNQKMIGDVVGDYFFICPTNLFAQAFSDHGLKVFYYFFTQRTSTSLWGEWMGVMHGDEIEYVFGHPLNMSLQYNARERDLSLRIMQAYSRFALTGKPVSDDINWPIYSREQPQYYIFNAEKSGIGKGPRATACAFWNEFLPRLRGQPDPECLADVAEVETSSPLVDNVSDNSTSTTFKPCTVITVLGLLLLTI
Experiment: Inhibition of susceptible Nephotettix cincticeps Ageo (green rice leafhopper) acetylcholinesterase activity

SMILES | log(1/I50)
CS(=O)(=O)Oc1cccc(S(=O)(=O)Cc2ccccc2)n1 | 8.82
CS(=O)(=O)Oc1cccc(S(C)(=O)=O)n1 | 7.17
CCCCCS(=O)(=O)c1cccc(OS(C)(=O)=O)n1 | 8.15
CS(=O)(=O)Oc1cccc(S(=O)(=O)C2CCCC2)n1 | 9.15
CCCS(=O)(=O)c1cccc(OS(C)(=O)=O)n1 | 8.7
CC(C)(C)S(=O)(=O)c1cccc(OS(C)(=O)=O)n1 | 7.28
CCC(C)S(=O)(=O)c1cccc(OS(C)(=O)=O)n1 (stereo not drawn) | 8.7
CC(C)S(=O)(=O)c1cccc(OS(C)(=O)=O)n1 | 9.52
CCCCS(=O)(=O)c1cccc(OS(C)(=O)=O)n1 | 8.8
CCS(=O)(=O)c1cccc(OS(C)(=O)=O)n1 | 8.02
CS(=O)(=O)Oc1cccc(S(=O)(=O)c2ccccc2)n1 | 8.14
CCCC(C)S(=O)(=O)c1cccc(OS(C)(=O)=O)n1 (stereo not drawn) | 9.3
CS(=O)(=O)Oc1cccc(S(=O)(=O)C2CCCCC2)n1 | 9.02
CC(C)CCS(=O)(=O)c1cccc(OS(C)(=O)=O)n1 | 7.77
CC(C)CS(=O)(=O)c1cccc(OS(C)(=O)=O)n1 | 9.15

Test system: Nephotettix cincticeps
Experiment: Insecticidal activity against susceptible Nephotettix cincticeps Ageo (green rice leafhopper)assessed as mortality by foliar-spray
Type: functional

SMILES | log(1/LD50)
CCCSc1cccc(OS(C)(=O)=O)n1 | 8.57
CCCC(C)Sc1cccc(OS(C)(=O)=O)n1 (stereo not drawn) | 7.65
CS(=O)(=O)Oc1cccc(Sc2ccccc2)n1 | 8.53
CS(=O)(=O)Oc1cccc(SC2CCCCC2)n1 | 7.69
CCCCCSc1cccc(OS(C)(=O)=O)n1 | 7.43
CS(=O)(=O)Oc1cccc(SCc2ccccc2)n1 | 7.91
CSCCSc1cccc(OS(C)(=O)=O)n1 | 7.7
CCSc1cccc(OS(C)(=O)=O)n1 | 8.14
CC(C)(C)Sc1cccc(OS(C)(=O)=O)n1 | 7.82
CSc1cccc(OS(C)(=O)=O)n1 | 6.71
CC(C)CCSc1cccc(OS(C)(=O)=O)n1 | 7.24
CC(C)CSc1cccc(OS(C)(=O)=O)n1 [6-(ISOBUTYLTHIO)PYRIDIN-2-YL METHANESULFONATE] | 8.16
CS(=O)(=O)Oc1cccc(SC2CCCC2)n1 | 8.39
CS(=O)(=O)Oc1cccc(SCC2CC2)n1 | 8.64
CCC(C)Sc1cccc(OS(C)(=O)=O)n1 (stereo not drawn) | 8.24
CCCCSc1cccc(OS(C)(=O)=O)n1 | 8.3
CC(C)Sc1cccc(OS(C)(=O)=O)n1 | 8.43
CC(C)(C)CSc1cccc(OS(C)(=O)=O)n1 | 8.26

Test system: not listed separately
Experiment: Methanol-water partition coefficient, log k of the compound
Type: physicochemical

SMILES | log K
CCCSc1cccc(OS(C)(=O)=O)n1 | 0.196
CS(=O)(=O)Oc1cccc(S(=O)(=O)Cc2ccccc2)n1 | 0.35
CCCC(C)Sc1cccc(OS(C)(=O)=O)n1 (stereo not drawn) | 0.59
CS(=O)(=O)Oc1cccc(Sc2ccccc2)n1 | 0.268
CS(=O)(=O)Oc1cccc(S(C)(=O)=O)n1 | -0.602
CS(=O)(=O)Oc1cccc(SC2CCCCC2)n1 | 0.664
CCCCCS(=O)(=O)c1cccc(OS(C)(=O)=O)n1 | 0.632
CS(=O)(=O)Oc1cccc(S(=O)(=O)C2CCCC2)n1 | 0.274
CCCS(=O)(=O)c1cccc(OS(C)(=O)=O)n1 | -0.036
CCCCCSc1cccc(OS(C)(=O)=O)n1 | 0.649
CC(C)(C)S(=O)(=O)c1cccc(OS(C)(=O)=O)n1 | 0.085
CS(=O)(=O)Oc1cccc(SCc2ccccc2)n1 | 0.33
CSCCSc1cccc(OS(C)(=O)=O)n1 | -0.174
CCC(C)S(=O)(=O)c1cccc(OS(C)(=O)=O)n1 (stereo not drawn) | 0.188
CC(C)S(=O)(=O)c1cccc(OS(C)(=O)=O)n1 | -0.115
CCCCS(=O)(=O)c1cccc(OS(C)(=O)=O)n1 | 0.293
CCS(=O)(=O)c1cccc(OS(C)(=O)=O)n1 | -0.358

SMILES | log K
CCSc1cccc(OS(C)(=O)=O)n1 | -0.034
CC(C)(C)Sc1cccc(OS(C)(=O)=O)n1 | 0.277
CS(=O)(=O)Oc1cccc(S(=O)(=O)c2ccccc2)n1 | 0.236
CSc1cccc(OS(C)(=O)=O)n1 | 0.259
CC(C)CCSc1cccc(OS(C)(=O)=O)n1 | 0.614
CCCC(C)S(=O)(=O)c1cccc(OS(C)(=O)=O)n1 (stereo not drawn) | 0.507
CC(C)CSc1cccc(OS(C)(=O)=O)n1 [6-(ISOBUTYLTHIO)PYRIDIN-2-YL METHANESULFONATE] | 0.399
CS(=O)(=O)Oc1cccc(SC2CCCC2)n1 | 0.447
CS(=O)(=O)Oc1cccc(SCC2CC2)n1 | 0.192
CCC(C)Sc1cccc(OS(C)(=O)=O)n1 (stereo not drawn) | 0.37
CCCCSc1cccc(OS(C)(=O)=O)n1 | 0.425
CS(=O)(=O)Oc1cccc(S(=O)(=O)C2CCCCC2)n1 | 0.565
CC(C)CCS(=O)(=O)c1cccc(OS(C)(=O)=O)n1 | 0.576
CC(C)CS(=O)(=O)c1cccc(OS(C)(=O)=O)n1 | 0.274
CC(C)Sc1cccc(OS(C)(=O)=O)n1 | 0.163
CC(C)(C)CSc1cccc(OS(C)(=O)=O)n1 | 0.558

Molecular target: Ace-orthologous acetylcholinesterase (Nephotettix cincticeps) (UniProt Q9NJH6)
Experiment: Inhibition of susceptible Nephotettix cincticeps Izumi (green rice leafhopper) acetylcholinesterase activity

SMILES | log(1/I50)
CS(=O)(=O)Oc1cccc(S(=O)(=O)Cc2ccccc2)n1 | 8.09
CCCCCS(=O)(=O)c1cccc(OS(C)(=O)=O)n1 | 8
CS(=O)(=O)Oc1cccc(S(=O)(=O)C2CCCC2)n1 | 9.11
CCCS(=O)(=O)c1cccc(OS(C)(=O)=O)n1 | 8.08
CC(C)(C)S(=O)(=O)c1cccc(OS(C)(=O)=O)n1 | 7.07
CCC(C)S(=O)(=O)c1cccc(OS(C)(=O)=O)n1 (stereo not drawn) | 9
CC(C)S(=O)(=O)c1cccc(OS(C)(=O)=O)n1 | 8.3
CCCCS(=O)(=O)c1cccc(OS(C)(=O)=O)n1 | 8.22
CCS(=O)(=O)c1cccc(OS(C)(=O)=O)n1 | 7.22
CS(=O)(=O)Oc1cccc(S(=O)(=O)c2ccccc2)n1 | 8
CCCC(C)S(=O)(=O)c1cccc(OS(C)(=O)=O)n1 (stereo not drawn) | 9.7
CS(=O)(=O)Oc1cccc(S(=O)(=O)C2CCCCC2)n1 | 9.1
CC(C)CCS(=O)(=O)c1cccc(OS(C)(=O)=O)n1 | 7.8
CC(C)CS(=O)(=O)c1cccc(OS(C)(=O)=O)n1 | 8.4
